According to US20260364181A1, “AKR1C3 Targeted Heterobifunctional Small Molecule Proteolysis Targeting Chimeras” (BOARD OF REGENTS OF THE UNIVERSITY OF NEBRASKA, priority 2022, published 2026):

Molecular target: T1, AKR1C3 (Homo sapiens, UniProt P42330)
T1 sequence (P42330 1-323): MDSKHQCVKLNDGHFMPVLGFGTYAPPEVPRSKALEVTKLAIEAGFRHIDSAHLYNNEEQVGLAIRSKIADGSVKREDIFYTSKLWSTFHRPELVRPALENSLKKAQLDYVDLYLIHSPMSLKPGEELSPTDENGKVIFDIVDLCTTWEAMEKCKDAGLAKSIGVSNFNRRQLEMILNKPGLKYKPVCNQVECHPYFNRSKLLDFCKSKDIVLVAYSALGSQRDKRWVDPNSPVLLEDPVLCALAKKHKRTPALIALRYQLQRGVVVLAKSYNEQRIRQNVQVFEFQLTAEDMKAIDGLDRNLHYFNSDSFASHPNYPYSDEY
Experiment: AKR1C3 protein degradation in 22Rv1 prostate cancer cells (Western blot)
Assay type: cell-based
Design: 22Rv1 prostate cancer cells that express high levels of AKR1C3; host or cells: 22Rv1
Description: Protein Expression via Western Blot. 22Rv1 cells were seeded in a 6-well plate and incubated overnight. Next day, the cells were treated with varying concentrations of 6 (1 and 10 μM) and 5 (0.5, 1, 10, 50, 100, 250, and 500 nM; 1, 10, and 50 μM) for 24 hours and 5 (1 and 10 nM) at different time points (0, 2, 4, 6, 12, 16, 24, 48, and 72 h). Whole cell lysates were extracted in RIPA lysis buffer containing protease inhibitor and EDTA (Fisher Scientific, PI78440). Protein concentrations in each sample was estimated following BCA assay (Pierce™ BCA protein assay kit, Fisher Scientific, PI23227) as per the manufacturer's protocol. Proteins were standardized using RIPA lysis buffer with Laemelli SDS sample buffer (Thermo Scientific, AAJ61337AC) and heated at 1000C for 15 minutes. The proteins were resolved on a 4-12% premade gel (Invitrogen, NW04120BOX) at 60-90 V in 20× Bolt™ MES SDS running buffer (Fisher Scientific, B000202) and transferred onto a nitrocellulose membrane (Invitrogen, IB23001) using iBlot 2. The membranes were blocked with 2.5% non-fat dry milk (Bio-Rad, 1706404) for 1 h, and the membrane was incubated overnight on a rocking platform at 4 °C with the desired primary antibodies against AKR1C3 (mouse mAb, 1:200, Sigma, A6229), AKR1C1/C2 (rabbit mAb, 1:500, Abcam, ab179448), ARv7 (rabbit mAb, 1:500, Abcam, ab198394) and actin (mouse mAb, 1:1,000, ThermoFisher, MA5-11869). The membranes were washed three times, 10 minutes each, with 1×Tris-buffered saline (TBST, Bio-Rad, 1706435) in 0.1% Tween 20, on a rocking platform wherein they were incubated with rabbit anti-mouse IgG (ThermoFisher, 31450) or goat anti-rabbit IgG (Jackson ImmunoResearch, 111-035-003) secondary antibody (1:1,000) horseradish peroxidase conjugate for 1 hour. The membranes were again washed three times with 1×TBST, upon which they were exposed to LI-COR WesternSure PREMIUM chemiluminescent substrate (Fisher Scientific, 50-489-552) and developed in a dark room with Konica Minolta equipment. Bands were quantified by densitometry using ImageJ software and fold change in AKR1C3, AKR1C1/C2, and ARv7 protein expression was determined based on actin controls. […]
The AKR1C3 degradation effect of PROTAC 5 was screened across a range of concentrations to identify a suitable treatment protocol. 22Rv1 cells were treated with increasing concentrations of […], DMSO or lenalidomide 6 at 1 μM and 10 μM for 24 hours, and the degradation profile was determined by Western blot analysis with antibody for AKR1C3.

mean AKR1C3 degradation (0.5 nM, 24 h, in words): no degradation
time course of AKR1C3 levels (1 nM, 24 through 72 hours post-treatment, in words): time-dependent decrease in AKR1C3 levels
onset of decrease in AKR1C3 levels (1 nM, post-treatment): 24 h
degradation of AKR1C3 (in words) (10 nM, 0-72 h): significant degradation
AKR1C3 degradation after proteasome inhibitor pretreatment (10 nM, 2 hour pretreatment with MG132 (3 μM), in words): effectively blocked
AKR1C3 degradation compared with Compound 3 (10 nM, 72 hour incubation, in words): outperformed Compound 3
onset of AKR1C3 degradation (10 nM, post-treatment): 4 h
AKR1C3 expression (1-50 μM, 24 h, in words): increased AKR1C3 expression
Dmax at 0.01 µM (22Rv1, 10 nM, 72 hours, read-out: maximal degradation of AKR1C3): ~75%
AKR1C3 expression (100-500 nM, 24 h, in words): increased AKR1C3 expression
Structure (SMILES): O=C(O)/C=C/c1cc(C(=O)NCc2ccc(OCc3cn(CCOCCOCC(=O)Nc4cccc5c4CN(C4CCC(=O)NC4=O)C5=O)nn3)cc2)cc(-c2ccccc2)c1 (centres unmarked) [Compound IA, (E)-3-(5-((4-((1-(2-(2-(2-((2-(2,6-dioxopiperidin-3-yl)-1-oxoisoindolin-4-yl)amino)-2-oxoethoxy)ethoxy)ethyl)-1H-1,2,3-triazol-4-yl)methoxy)benzyl)carbamoyl)-[1,1 ? biphenyl]-3-yl)acrylic acid]
AKR1C3 protein expression (10 nM, 4 hours of treatment, in words): effectively reduced AKR1C3 protein expression
